Values after ≈ are worked out from the molar mass of the structure shown.
Details: for aqueous solubility: pH 6.8

intrinsic clearance, human liver microsomes [mL/min/kg]	intrinsic clearance, rat liver microsomes [mL/min/kg]	MDR1-MDCK efflux ratio	aqueous solubility [µg/mL]	fraction unbound, human plasma	fraction unbound, rat plasma	SMILES
105	1740					CN(Cc1nc2ccccc2n1C)c1ccnc(-c2ccccc2)n1
11.7	27.7					N#Cc1c(Cl)nc(N)n1-c1ccccc1
			1.88 (≈ 5.12 µM)			CC1=C(C(=O)OCc2ccc3c(c2)OCO3)C(c2ccccc2)NC(=O)N1 (configuration not stated)
24.4	166	42.6				CC(=O)N[C@H]1CC2(CCN(C(=O)COc3cc(C)c(Cl)c(C)c3)CC2)OC[C@]1(C)O
		16.2	0.2 (≈ 0.359 µM)			Cc1ccc(-n2nc(C(C)(C)C)cc2NC(=O)NCc2cc(F)ccc2Oc2ccc3c(cnn3CCO)c2)cc1
14.3	400	0.707				CS(=O)(=O)NCCN1CCc2c(Cl)cc(Cl)cc2C1
15.7	541	123	36.8 (≈ 110 µM)			Cc1ccc(-c2ccc(-c3nccn3CCCn3cnnc3)o2)cc1
62.6	288	0.889	2.09 (≈ 6.64 µM)			O=C(Cc1c(F)cccc1Cl)Nc1cccc2cnccc12
34.9	402	4.31	53.5 (≈ 174 µM)			CC(C)c1nc2c(n1C)CCN(c1ncnc3ccccc13)C2
8.75	441	3.5				c1ccc2nc(NCCn3ccnc3)cnc2c1
≤ 4.74	≤ 10.7	0.661	32.2 (≈ 136 µM)			CS(=O)(=O)Cc1ccn(-c2ccccc2)n1
≤ 4.74	≤ 10.7	0.605	32.5 (≈ 139 µM)			CNC(=O)c1cc(C2CCN(C)CC2)ncn1
≤ 4.74	≤ 10.7		36.4 (≈ 175 µM)			Nc1cnn(CC(=O)N2CCCCC2)c1
65.1	1250	0.688	20.9 (≈ 71.5 µM)			CCc1nc(CN2C(=O)COc3ccc(F)cc32)cs1
15	14.7	133	36.3 (≈ 65.7 µM)			CCc1nc(C(N)=O)c(Nc2ccc(N3CCC(N4CCN(C)CC4)CC3)c(OC)c2)nc1NC1CCOCC1
15.4	181	1.08	36.2 (≈ 128 µM)			CC(C)[C@H](Nc1ncc(Cl)cn1)C(=O)N1CCCC1

intrinsic clearance, human liver microsomes [mL/min/kg]	intrinsic clearance, rat liver microsomes [mL/min/kg]	MDR1-MDCK efflux ratio	aqueous solubility [µg/mL]	fraction unbound, human plasma	fraction unbound, rat plasma	SMILES
75.4	93.7	0.597	36.7 (≈ 157 µM)			Cc1oc(C)c(C(=O)Nc2ccn(C)n2)c1C
≤ 4.74	≤ 10.7	2.44	35.2 (≈ 129 µM)			CN1CCC(NC(=O)COc2ccc(C#N)cc2)CC1
62.5	334	0.545	35.7 (≈ 131 µM)			COc1ccc(C)cc1-n1ccc(C(=O)NC(C)C)n1
535	2050	22.7	35.5 (≈ 88.1 µM)			Cc1cccc(OCCCNc2cc(Cn3c(C)nc4ccccc43)nc(N)n2)c1
40.4	972	0.597	69.9 (≈ 296 µM)			CN(CCC1CCCCC1)C(=O)c1ccon1
≤ 4.74	461		36.9 (≈ 106 µM)			Cc1cc(Cl)c(OCCCN2CCNCC2)c(Br)c1
17.2	188	2.44	50.2 (≈ 160 µM)			Cc1cccc(-n2c(S)nnc2CNc2ccc(F)cc2)c1
		0.459	0.22 (≈ 0.72 µM)			CC(C)NC(=O)c1cn(-c2ccccc2)nc1-c1ccccc1
15.4	183	0.646	56.4 (≈ 232 µM)			C#CCNC(=O)Cc1coc2cc(OC)ccc12
16.5	76.5	0.624				COc1ccc(CC(=O)Nc2ccc(F)nc2)cc1
121	2180	0.463				O=c1c2sccc2nc2n1CCN(Cc1cc(F)ccc1F)CC2
≤ 4.74	31.7	8.33	59.7 (≈ 161 µM)			Cn1c(C(=O)N2CCN(CCc3ccccc3)C(=O)C2)cc(=O)n(C)c1=O
18.9	170	0.57				OC1(c2cccnc2F)CCN(Cc2ccc(-c3ccc(F)cc3)o2)CC1
≤ 4.74	14.1	1.31		1	0.838	CC(=O)Nc1ncc(CN2CCCC[C@@H]2C)s1
		0.695	0.37 (≈ 1.07 µM)			CSCC(=O)Nc1nc(-c2ccc(C3CCCCC3)cc2)cs1

SMILES	intrinsic clearance, human liver microsomes [mL/min/kg]	intrinsic clearance, rat liver microsomes [mL/min/kg]	MDR1-MDCK efflux ratio	aqueous solubility [µg/mL]	fraction unbound, human plasma	fraction unbound, rat plasma
O=C(Nc1ccc2sccc2c1)N1CCCN(C(=O)Oc2ccccc2)CC1	78.3	765	1.31	37.9 (≈ 95.7 µM)		
Cc1nn(C)c2sc(C(=O)N3CCC(C(=O)O)(c4ccccc4)CC3)cc12	≤ 4.74	≤ 10.7	8.54	73.7 (≈ 192 µM)		
